Results taken from article PMC6926482, “LCO Receptors Involved in Arbuscular Mycorrhiza Are Functional for Rhizobia Perception in Legumes” (Current Biology, 2019).

Assays:
SlLYK10c-YFP = target: T1, SlLYK10c-YFP; test: radioligand competition on membrane fractions; assay type: binding, Solanum lycopersicum; conditions: competition with LCO-V(C18:1,NMe,35S) 1-2 nM
T1 construct: gene LYK10; SlLYK10 extracellular region fused to TM/ICR of Medicago truncatula NFP, YFP kept (about 102 kDa with 6 predicted N-glycans); expressed in Nicotiana benthamiana leaves, membrane fraction; with Serine/threonine receptor-like kinase NFP (Medicago truncatula; transmembrane and intracellular region fused to the SlLYK10 extracellular region)

PhLYK10-YFP = target: T2, PhLYK10-YFP; test: radioligand competition on membrane fractions; assay type: binding, Petunia hybrida; conditions: competition with LCO-V(C18:1,NMe,35S) 1-2 nM; competitor tested at 1 μM only; pH 6
T2 construct: gene LYK10; expressed in Nicotiana benthamiana leaves, membrane fraction

[1] = competitor tested at 1 μM only, pH 6
[2] = 25 mM Na-cacodylate pH 6, 1 mM CaCl2, 1 mM MgCl2, n = 3

Row | Ki (SlLYK10c-YFP; [1]) [nM] | Ki (PhLYK10-YFP) [nM] | Ki (SlLYK10c-YFP; [2]) [nM] | SMILES
1 | > 1000 | > 1000 | – | CC(=O)N[C@H]1[C@H](O[C@H]2[C@H](O)[C@@H](NC(C)=O)C(O)O[C@@H]2CO)O[C@H](CO)[C@@H](O[C@@H]2O[C@H](CO)[C@@H](O[C@@H]3O[C@H](CO)[C@@H](O)[C@H](O)[C@H]3NC(C)=O)[C@H](O)[C@H]2NC(C)=O)[C@@H]1O (stereo partly drawn) [CO4]
2 | > 1000 | > 1000 | – | CC(=O)N[C@H]1[C@H](O[C@H]2[C@H](O)[C@@H](NC(C)=O)[C@H](O[C@H]3[C@H](O)[C@@H](NC(C)=O)[C@H](O[C@H]4[C@H](O)[C@@H](NC(C)=O)C(O)O[C@@H]4CO)O[C@@H]3CO)O[C@@H]2CO)O[C@H](CO)[C@@H](O[C@@H]2O[C@H](CO)[C@@H](O[C@@H]3O[C@H](CO)[C@@H](O[C@@H]4O[C@H](CO)[C@@H](O[C@@H]5O[C@H](CO)[C@@H](O)[C@H](O)[C@H]5NC(C)=O)[C@H](O)[C@H]4NC(C)=O)[C@H](O)[C@H]3NC(C)=O)[C@H](O)[C@H]2NC(C)=O)[C@@H]1O (stereo partly drawn) [CO8]
3 | – | – | 354 ± 60 | CCCCCCCCCCCCCCCC(=O)N[C@H]1[C@H](O[C@H]2[C@H](O)[C@@H](NC(C)=O)[C@H](O[C@H]3[C@H](O)[C@@H](NC(C)=O)[C@H](O[C@H]4[C@H](O)[C@@H](NC(C)=O)C(O)O[C@@H]4CO)O[C@@H]3CO)O[C@@H]2CO)O[C@H](CO)[C@@H](O)[C@@H]1O (stereo partly drawn) [LCO-IV(C16:0)]
4 | – | – | 192 ± 52 | CCCCCCCCCCCCCCCC(=O)N[C@H]1[C@H](O[C@H]2[C@H](O)[C@@H](NC(C)=O)[C@H](O[C@H]3[C@H](O)[C@@H](NC(C)=O)[C@H](O[C@H]4[C@H](O)[C@@H](NC(C)=O)C(O)O[C@@H]4COS(=O)(=O)O)O[C@@H]3CO)O[C@@H]2CO)O[C@H](CO)[C@@H](O)[C@@H]1O (stereo partly drawn) [LCO-IV(C16:0,S)]
